Toxic doses and inconclusive results are not listed. Rule for the calls: active = survival T/C of 150% or more; inactive = T/C below 125% in these data.
System: BDF1 mice, P388 leukemia ip, median survival T/C
Assay: NCI In Vivo Anticancer Drug Screen. Data for tumor model P388 Leukemia (intraperitoneal) in B6D2F1 (BDF1) mice
Conditions: endpoint: median survival time, higher = longer survival
Outline: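 Read-out is survival of treated animals expressed relative to the vehicle group, as a T/C ratio.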

[1] = dose: 100.0 mg/kg/injection, schedule: Q04DX003 (ip), vehicle: saline
[2] = dose: 50.0 mg/kg/injection, schedule: Q01DX009 (ip), vehicle: saline with Tween-80
[3] = dose: 100.0 mg/kg/injection, schedule: Q01DX009 (ip), vehicle: saline with Tween-80
[4] = dose: 200.0 mg/kg/injection, schedule: Q01DX009 (ip), vehicle: saline with Tween-80

Measured: T/C

c1ccc(-c2ncc3cnccn23)cc1
inactive: dose: 3.12 mg/kg/injection, schedule: Q01DX009 (ip), vehicle: saline 100 % of control | dose: 6.25 mg/kg/injection, schedule: Q01DX009 (ip), vehicle: saline 100 % of control | dose: 12.5 mg/kg/injection, schedule: Q01DX009 (ip), vehicle: saline 100 % of control | dose: 12.5 mg/kg/injection, schedule: Q04DX003 (ip), vehicle: saline 114 % of control | dose: 25.0 mg/kg/injection, schedule: Q04DX003 (ip), vehicle: saline 116 % of control | dose: 50.0 mg/kg/injection, schedule: Q01DX009 (ip), vehicle: saline 88 % of control | dose: 50.0 mg/kg/injection, schedule: Q04DX003 (ip), vehicle: saline 105 % of control | [1] 107 % of control

Oc1ccccc1C=NC1CCCCC1.Oc1ccccc1C=NC1CCCCC1.[Ni+2]
inactive: dose: 50.0 mg/kg/injection, schedule: Q04DX003 (ip), vehicle: saline sonified 109 % of control | dose: 100.0 mg/kg/injection, schedule: Q04DX003 (ip), vehicle: saline sonified 109 % of control | dose: 200.0 mg/kg/injection, schedule: Q04DX003 (ip), vehicle: saline sonified 100 % of control

CC(=O)OCC(=O)[C@@]1(O)CC[C@H]2[C@@H]3C[C@H](F)C4=CC(=O)CC[C@]4(C)[C@H]3[C@@H](O)C[C@@]21C
inactive: dose: 12.5 mg/kg/injection, schedule: Q01DX009 (ip), vehicle: saline with Tween-80 109 % of control | dose: 25.0 mg/kg/injection, schedule: Q01DX009 (ip), vehicle: saline with Tween-80 118 % of control | [2] 118 % of control

O=C1C=C/C(=N/S(=O)(=O)c2ccccc2)c2ccccc21
inactive: dose: 0.37 mg/kg/injection, schedule: Q01DX009 (ip), vehicle: DMSO 100 % of control | dose: 0.75 mg/kg/injection, schedule: Q01DX009 (ip), vehicle: DMSO 100 % of control | dose: 1.5 mg/kg/injection, schedule: Q01DX009 (ip), vehicle: DMSO 100 % of control | dose: 12.0 mg/kg/injection, schedule: Q01DX009 (ip), vehicle: DMSO 92 % of control | dose: 25.0 mg/kg/injection, schedule: Q04DX003 (ip), vehicle: DMSO 91 % of control | dose: 50.0 mg/kg/injection, schedule: Q04DX003 (ip), vehicle: DMSO 104 % of control | dose: 100.0 mg/kg/injection, schedule: Q04DX003 (ip), vehicle: DMSO 100 % of control

CCCCCCCCS.[Ni]
inactive: dose: 100.0 mg/kg/injection, schedule: Q01DX001 (ip), vehicle: Klucel (hydroxypropylcellulose) (HPC) 100 % of control | dose: 100.0 mg/kg/injection, schedule: Q04DX003 (ip), vehicle: Klucel (hydroxypropylcellulose) (HPC) 113 % of control | dose: 200.0 mg/kg/injection, schedule: Q01DX001 (ip), vehicle: Klucel (hydroxypropylcellulose) (HPC) 100 % of control

C/C=C/C=C/NC(=O)Oc1ccccc1
inactive: dose: 100.0 mg/kg/injection, schedule: Q04DX003 (ip), vehicle: saline with Tween-80 91 % of control | dose: 200.0 mg/kg/injection, schedule: Q04DX003 (ip), vehicle: saline with Tween-80 94 % of control | dose: 400.0 mg/kg/injection, schedule: Q04DX003 (ip), vehicle: saline with Tween-80 116 % of control

O=C1C(C(O)c2ccccc2)SC(c2ccccc2)N1c1ccccc1 (configuration not stated)
inactive: dose: 12.5 mg/kg/injection, schedule: Q04DX003 (ip), vehicle: Klucel (hydroxypropylcellulose) (HPC) 96 % of control | dose: 25.0 mg/kg/injection, schedule: Q04DX003 (ip), vehicle: Klucel (hydroxypropylcellulose) (HPC) 96 % of control | dose: 50.0 mg/kg/injection, schedule: Q04DX003 (ip), vehicle: Klucel (hydroxypropylcellulose) (HPC) 96 % of control | dose: 400.0 mg/kg/injection, schedule: Q04DX003 (ip), vehicle: Klucel (hydroxypropylcellulose) (HPC) 90 % of control

Nc1ccccc1CCCC(=O)O
inactive: [1] 100 % of control | dose: 200.0 mg/kg/injection, schedule: Q04DX003 (ip), vehicle: saline 100 % of control | dose: 400.0 mg/kg/injection, schedule: Q04DX003 (ip), vehicle: saline 104 % of control

CCCCOCN(COCCCC)C12CC3CC(CC(C3)C1)C2
inactive: [2] 120 % of control

CCN(CC)Cc1c(C)[nH]c2c(OC)cccc2c1=O
inactive: dose: 6.25 mg/kg/injection, schedule: Q01DX009 (ip), vehicle: water 97 % of control | dose: 6.25 mg/kg/injection, schedule: Q04DX003 (ip), vehicle: water 98 % of control | dose: 12.5 mg/kg/injection, schedule: Q01DX009 (ip), vehicle: water 99 % of control | dose: 12.5 mg/kg/injection, schedule: Q04DX003 (ip), vehicle: water 91 % of control | dose: 25.0 mg/kg/injection, schedule: Q01DX009 (ip), vehicle: water 106 % of control | dose: 25.0 mg/kg/injection, schedule: Q04DX003 (ip), vehicle: water 105 % of control | dose: 50.0 mg/kg/injection, schedule: Q01DX009 (ip), vehicle: water 97 % of control | dose: 50.0 mg/kg/injection, schedule: Q04DX003 (ip), vehicle: water 100 % of control | dose: 100.0 mg/kg/injection, schedule: Q01DX009 (ip), vehicle: water 108 % of control | dose: 100.0 mg/kg/injection, schedule: Q04DX003 (ip), vehicle: water 105 % of control

S=c1nc[nH]c2c1ncn2C1CCCC1
inactive: [3] 104 % of control | [4] 95 % of control

N#Cc1c(Cl)c(Cl)c(OC(=O)c2ccc(Cl)c(Cl)c2)c(Cl)c1Cl
inactive: [2] 117 % of control | [3] 108 % of control | [4] 94 % of control

Cn1c(Cl)nc2c(Cl)nc(Cl)nc21
inactive: dose: 1.0 mg/kg/injection, schedule: Q01DX009 (ip), vehicle: Klucel (hydroxypropylcellulose) (HPC) 105 % of control | dose: 2.0 mg/kg/injection, schedule: Q01DX009 (ip), vehicle: Klucel (hydroxypropylcellulose) (HPC) 100 % of control | dose: 4.0 mg/kg/injection, schedule: Q01DX009 (ip), vehicle: Klucel (hydroxypropylcellulose) (HPC) 110 % of control | dose: 8.0 mg/kg/injection, schedule: Q01DX009 (ip), vehicle: Klucel (hydroxypropylcellulose) (HPC) 105 % of control | dose: 16.0 mg/kg/injection, schedule: Q01DX009 (ip), vehicle: Klucel (hydroxypropylcellulose) (HPC) 100 % of control

CCCCCCc1c(C(OC)OC)[nH]c(=S)[nH]c1=O
inactive: dose: 100.0 mg/kg/injection, schedule: Q01DX009 (ip), vehicle: Klucel (hydroxypropylcellulose) (HPC) 96 % of control | dose: 200.0 mg/kg/injection, schedule: Q01DX009 (ip), vehicle: Klucel (hydroxypropylcellulose) (HPC) 89 % of control

CC(C)CCN(CCC(C)C)CC(O)c1cc(-c2ccc(C(F)(F)F)cc2)nc(-c2ccc(C(F)(F)F)cc2)c1 (configuration not stated)
inactive: [2] 113 % of control | [3] 106 % of control | [4] 113 % of control

CCCCCCCCCC(=O)NN
inactive: dose: 50.0 mg/kg/injection, schedule: Q01DX001 (ip), vehicle: saline sonified 95 % of control | dose: 100.0 mg/kg/injection, schedule: Q01DX001 (ip), vehicle: saline sonified 104 % of control | dose: 200.0 mg/kg/injection, schedule: Q01DX001 (ip), vehicle: saline sonified 104 % of control

Clc1ccc(-c2ncnc3c2Cc2ccccc2-3)cc1
inactive: [3] 112 % of control | [4] 116 % of control | dose: 400.0 mg/kg/injection, schedule: Q01DX009 (ip), vehicle: saline with Tween-80 100 % of control

C[CH2][Sn]([CH2]C)([CH2]C)[NH]S(=O)(=O)c1ccc(C)cc1
inactive: dose: 0.39 mg/kg/injection, schedule: Q01DX009 (ip), vehicle: Klucel (hydroxypropylcellulose) (HPC) 100 % of control | dose: 0.78 mg/kg/injection, schedule: Q01DX009 (ip), vehicle: Klucel (hydroxypropylcellulose) (HPC) 115 % of control | dose: 3.12 mg/kg/injection, schedule: Q01DX001 (ip), vehicle: Klucel (hydroxypropylcellulose) (HPC) 100 % of control | dose: 6.25 mg/kg/injection, schedule: Q01DX001 (ip), vehicle: Klucel (hydroxypropylcellulose) (HPC) 90 % of control | dose: 12.5 mg/kg/injection, schedule: Q01DX001 (ip), vehicle: Klucel (hydroxypropylcellulose) (HPC) 90 % of control | dose: 18.0 mg/kg/injection, schedule: Q01DX001 (ip), vehicle: Klucel (hydroxypropylcellulose) (HPC) 104 % of control

Source: PubChem BioAssay AID328 (DTP/NCI, 2004)
